One assay concerns the target T1, chimeric human H3 receptor (Homo sapiens, UniProt Q9Y5N1, E19D).
T1 construct: made in house; host or cells: Sf9 insect cells (baculovirus infection); P2 membrane preparation
Nature of the assay: Chimeric human H3 receptor screening GTP binding assay (inhibition of histamine-stimulated GTP-gamma35S binding, Example 8). The assay is classed as biochemical. The following applies: 1 h; "+" in Ki of Table II; assay of Example 8; read-out: percent inhibition of agonist-induced GTP-gammaS binding to H3. In outline: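 Sf9 membranes co-expressing the chimeric receptor and a heterotrimeric G-protein (35 μg protein) in Tris pH 7.4 buffer with 10 μM GDP; compound at 4 μM plus 1 μM histamine, 125 pM GTP-gamma35S, 60 min at room temperature. Filter-bound radioactivity read; non-specific binding defined with 10 uM GTP-gammaS; percent inhibition of histamine signal.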
In general terms: Binding of GTPγS marks nucleotide exchange on a G protein.
T1 sequence (Q9Y5N1 with tags, fused parts or gaps E19D): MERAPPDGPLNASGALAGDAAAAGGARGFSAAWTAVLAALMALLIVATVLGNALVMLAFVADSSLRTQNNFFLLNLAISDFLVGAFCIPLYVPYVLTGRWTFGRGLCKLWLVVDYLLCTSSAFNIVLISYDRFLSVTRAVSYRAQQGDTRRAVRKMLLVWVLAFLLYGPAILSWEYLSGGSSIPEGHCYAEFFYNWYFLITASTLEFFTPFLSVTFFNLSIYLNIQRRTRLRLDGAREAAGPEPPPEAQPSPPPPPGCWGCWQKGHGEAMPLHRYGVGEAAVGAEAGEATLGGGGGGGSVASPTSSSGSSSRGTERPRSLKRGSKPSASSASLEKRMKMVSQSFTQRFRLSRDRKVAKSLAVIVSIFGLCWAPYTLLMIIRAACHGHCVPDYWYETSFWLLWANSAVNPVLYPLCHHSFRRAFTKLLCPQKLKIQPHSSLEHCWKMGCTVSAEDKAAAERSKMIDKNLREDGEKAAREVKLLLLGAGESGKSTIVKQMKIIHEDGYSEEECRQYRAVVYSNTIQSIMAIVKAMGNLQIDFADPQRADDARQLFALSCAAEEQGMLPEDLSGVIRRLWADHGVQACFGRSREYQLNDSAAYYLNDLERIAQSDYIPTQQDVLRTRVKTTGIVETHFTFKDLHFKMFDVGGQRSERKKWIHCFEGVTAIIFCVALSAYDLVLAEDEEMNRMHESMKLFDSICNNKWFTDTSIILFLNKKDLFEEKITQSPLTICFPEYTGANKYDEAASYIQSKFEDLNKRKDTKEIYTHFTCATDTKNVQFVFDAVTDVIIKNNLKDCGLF
Turning to `O=C(Cc1ccc(Cl)cc1Cl)N1CCN(CC(=O)N2CCN(C3CCC3)CC2)CC1` [Compound 505, 1-cyclobutyl-4-({4-[(2,4-dichlorophenyl)acetyl]piperazin-1-yl]acetyl)piperazine], the inhibition at 4 µM was over 90%. On to `O=C(COc1ccc(F)cc1)N1CCN(CC(=O)N2CCN(C3CCC3)CC2)CC1` [Compound 558, 1-cyclobutyl-4-({4-[(4-fluorophenoxy)acetyl]piperazin-1-yl}acetyl)piperazine], for which the inhibition at 4 µM was over 90%. On the same count and under the same terms, with `O=C(CN1CCN(C(=O)c2cccnc2Oc2ccc(Cl)cc2)CC1)N1CCN(C2CCC2)CC1` [Compound 473, 1-{[2-(4-chlorophenoxy)pyridin-3-yl]carbonyl}-4-[2-(4-cyclobutylpiperazin-1-yl)-2-oxoethyl]piperazine] the figure was over 90%; with `COc1ccccc1OCC(=O)N1CCN(CC(=O)N2CCN(C3CCC3)CC2)CC1` [Compound 535, 1-cyclobutyl-4-({4-[(2-methoxyphenoxy)acetyl]piperazin-1-yl}acetyl)piperazine], over 90%. `COc1ccc(C(=O)N2CCN(CC(=O)N3CCN(C4CCC4)CC3)CC2)c(OC)n1` [Compound 513, 1-cyclobutyl-4-({4-[(2,6-dimethoxypyridin-3-yl)carbonyl]piperazin-1-yl}acetyl)piperazine]: the inhibition at 4 µM was over 90%. Consider `O=C(CN1CCN(C(=O)c2cc(-c3ccc(Cl)cc3)oc2C(F)(F)F)CC1)N1CCN(C2CCC2)CC1` [Compound 469, 1-[5-(4-chlorophenyl)-2-(trifluoromethyl)-3-furoyl]-4-[2-(4-cyclobutylpiperazin-1-yl)-2-oxoethyl]piperazine], for which the inhibition at 4 µM was over 90%.

On to `Cc1ccc(CC(=O)N2CCN(CC(=O)N3CCN(C4CCC4)CC3)CC2)cc1` [Compound 566, 1-cyclobutyl-4-({4-[(4-methylphenyl)acetyl]piperazin-1-yl}acetyl)piperazine], for which the inhibition at 4 µM is over 90%. On to `Cc1ccsc1C(=O)N1CCN(CC(=O)N2CCN(C3CCC3)CC2)CC1` [Compound 553, 1-cyclobutyl-4-({4-[(3-methyl-2-thienyl)carbonyl]piperazin-1-yl}acetyl)piperazine], for which the inhibition at 4 µM is over 90%.

The assay is the same for the next values; noted with them: 1 h; Table II "Ki", symbol "+": assay described in Example 8; read-out: percent inhibition of agonist-induced GTP-gammaS binding to H3.
For the compound `Cc1cc(C)c(C(=O)N2CCN(CC(=O)N3CCN(C4CCC4)CC3)CC2)c(C)c1` [Compound 796, 1-cyclobutyl-4-{[4-(mesitylcarbonyl)piperazin-1-yl]acetyl}piperazine], the inhibition at 4 µM is over 90%.

As to `Cc1cccc(C(=O)N2CCN(CC(=O)N3CCN(C4CCC4)CC3)CC2)c1N` [Compound 892, 2-({4-[2-(4-cyclobutylpiperazin-1-yl)-2-oxoethyl]piperazin-1-yl}carbonyl)-6-methylaniline], the inhibition at 4 µM is over 90%.

Turning to `Cc1ccc(C(=O)N2CCN(CC(=O)N3CCN(C4CCC4)CC3)CC2)cc1` [Compound 783, 1-cyclobutyl-4-{[4-(4-methylbenzoyl)piperazin-1-yl]acetyl}piperazine], the inhibition at 4 µM is over 90%. Consider `O=C(CN1CCN(C(=O)c2ccno2)CC1)N1CCN(C2CCC2)CC1` [Compound 795, 1-cyclobutyl-4-{[4-(isoxazol-5-ylcarbonyl)piperazin-1-yl]acetyl}piperazine], for which the inhibition at 4 µM is over 90%.

Staying with this assay, now noted: 1 h; Table II, "+" in the column headed Ki; assay of Example 8; read-out: percent inhibition of agonist-induced GTP-gammaS binding to H3.
`CCSc1ncccc1C(=O)N1CCN(CC(=O)N2CCN(C3CCC3)CC2)CC1` [Compound 618, 1-cyclobutyl-4-[(4-{[2-(ethylthio)pyridin-3-yl]carbonyl}piperazin-1-yl)acetyl]piperazine]: the inhibition at 4 µM is over 90%.

As for `O=C(CN1CCN(C(=O)c2ccc(F)cc2)CC1)N1CCN(C2CCC2)CC1` [Compound 772, 1-cyclobutyl-4-{[4-(4-fluorobenzoyl)piperazin-1-yl]acetyl}piperazine], the inhibition at 4 µM was over 90%.

On to `Cc1onc(-c2c(Cl)cccc2Cl)c1C(=O)N1CCN(CC(=O)N2CCN(C3CCC3)CC2)CC1` [Compound 624, 1-cyclobutyl-4-[(4-{[3-(2,6-dichlorophenyl)-5-methylisoxazol-4-yl]carbonyl}piperazin-1-yl)acetyl]piperazine], for which the inhibition at 4 µM is over 90%. As for `O=C(CN1CCN(C(=O)c2cccc(Cl)c2Cl)CC1)N1CCN(C2CCC2)CC1` [Compound 664, 1-cyclobutyl-4-{[4-(2,3-dichlorobenzoyl)piperazin-1-yl]acetyl}piperazine], the inhibition at 4 µM is over 90%. With `O=C(CN1CCN(C(=O)c2cncc(C#Cc3ccccc3)c2)CC1)N1CCN(C2CCC2)CC1` [Compound 634, 1-cyclobutyl-4-[(4-{[5-(phenylethynyl)pyridin-3-yl]carbonyl}piperazin-1-yl)acetyl]piperazine], the inhibition at 4 µM was over 90%.

The same assay, now with this note: 1 h; assay described in Example 8; symbol + in column headed Ki of Table II; read-out: percent inhibition of agonist-induced GTP-gammaS binding to H3.
For the compound `CCn1nc(C)c(Br)c1C(=O)N1CCN(CC(=O)N2CCN(C3CCC3)CC2)CC1` [Compound 402, 1-[(4-bromo-1-ethyl-3-methyl-1H-pyrazol-5-yl)carbonyl]-4-[2-(4-cyclobutylpiperazin-1-yl)-2-oxoethyl]piperazine], the inhibition at 4 µM was over 90%.

On to `CCCCOc1ccc(C(=O)N2CCN(CC(=O)N3CCN(C4CCC4)CC3)CC2)cc1` [Compound 340, 1-(4-butoxybenzoyl)-4-[2-(4-cyclobutylpiperazin-1-yl)-2-oxoethyl]piperazine], for which the inhibition at 4 µM is over 90%. For the compound `COc1cc(Br)c(/C=C/C(=O)N2CCN(CC(=O)N3CCN(C4CCC4)CC3)CC2)cc1OC` [Compound 386, 1-[(2E)-3-(2-bromo-4,5-dimethoxyphenyl)prop-2-enoyl]-4-[2-(4-cyclobutylpiperazin-1-yl)-2-oxoethyl]piperazine], the inhibition at 4 µM is over 90%. Consider `O=C(CN1CCN(C(=O)c2ccc3c(c2)OCO3)CC1)N1CCN(C2CCC2)CC1` [Compound 260, 1-(1,3-benzodioxol-5-ylcarbonyl)-4-[2-(4-cyclobutylpiperazin-1-yl)-2-oxoethyl]piperazine], for which the inhibition at 4 µM is over 90%.

In the case of `O=C(CN1CCN(C(=O)c2sccc2Br)CC1)N1CCN(C2CCC2)CC1` [Compound 395, 1-[(3-bromo-2-thienyl)carbonyl]-4-[2-(4-cyclobutylpiperazin-1-yl)-2-oxoethyl]piperazine], the inhibition at 4 µM was over 90%. On to `Cc1ccc(C(=O)N2CCN(CC(=O)N3CCN(C4CCC4)CC3)CC2)cc1Cl` [Compound 298, 1-(3-chloro-4-methylbenzoyl)-4-[2-(4-cyclobutylpiperazin-1-yl)-2-oxoethyl]piperazine], for which the inhibition at 4 µM was over 90%. `Cc1cc(C(=O)N2CCN(CC(=O)N3CCN(C4CCC4)CC3)CC2)cc(Cl)n1` [Compound 276, 1-(2-chloro-6-methylisonicotinoyl)-4-[2-(4-cyclobutylpiperazin-1-yl)-2-oxoethyl]piperazine]: the inhibition at 4 µM is over 90%. `O=C(/C=C/c1c(F)cccc1Cl)N1CCN(CC(=O)N2CCN(C3CCC3)CC2)CC1` [Compound 388, 1-[(2E)-3-(2-chloro-6-fluorophenyl)prop-2-enoyl]-4-[2-(4-cyclobutylpiperazin-1-yl)-2-oxoethyl]piperazine]: the inhibition at 4 µM is over 90%. As for `COc1ccc(Cl)cc1C(=O)N1CCN(CC(=O)N2CCN(C3CCC3)CC2)CC1` [Compound 364, 1-(5-chloro-2-methoxybenzoyl)-4-[2-(4-cyclobutylpiperazin-1-yl)-2-oxoethyl]piperazine], the inhibition at 4 µM is over 90%.

Broadly, the inhibition is the share of the control response that was lost under treatment.

Source of the values: patent publication US7851474B2, “Dipiperazinyl ketones and related analogues” (Neurogen Corporation, priority 2005, dated 2010).
